In patent publication US20220339178A1, “COMPOSITIONS AND METHODS FOR COGNITIVE PROTECTION OF POLLINATORS AGAINST PESTICIDES” (priority 2019, published 2022):

How the values were obtained:
[1] = test system: Honeybees (Apis mellifera scutellata); experiment: Classical conditioning of the proboscis extension response (PER): learning, 24 h memory retention, latency; flavonoids vs imidacloprid; type: in vivo; settings: for memory retention, proportion difference relative to Control bees (Adjusted Wald test): conditioned PER after 24 h; for latency of response during learning acquisition relative to Control bees / learning scores relative to Control bees: honey bees; for learning scores relative to Control bees: 8 trials, score 0-7, quercetin 6.6 mM or rutin 1 mM once a day for three days, imidacloprid 1.16 nM 20 μL 1.5 h before training
Experimental: Honeybees (Apis mellifera scutellata) were captured from established hives at the Apiary of the Pontificia Universidad Javeriana (Bogota, Colombia). Foragers were collected while leaving to forage between 8:00 am and 10:00 am (Matsumoto et al., J Neurosci Methods. 211(1):159-67. 2012). Bees were maintained in individual plastic chambers under laboratory conditions (photoperiod followed seasonal pattern; relative humidity: 63%; temperature: 18° C.). Food was provided once a day in a volume of 20 μL and varied in composition according to experimental treatments.
Control (2M sugar water): fed once a day (20 μL) for three consecutive days;
Quercetin (6.6 mM quercetin (Sigma-Aldrich: Q4951)-sucrose-water with DMSO 1% (Sigma-Aldrich: D8418): fed once a day for three days;
Rutin (1 mM rutin (Sigma-Aldrich R5143)-sucrose-water with DMSO 1%: fed once a day for three days;
Imidacloprid (1.16 nM Imidacloprid (Bayer)-sucrose-water: fed as a single dose (20 μL) 1.5 h before training;
Quercetin-Imidacloprid: bees received the quercetin treatment (see above) and were fed Imidacloprid 1.5 h before training; and
Rutin-Imidacloprid: bees received the rutin treatment (see above) and were fed Imidacloprid 1.5 h before training.
Bees were trained using classical conditioning of the proboscis extension response (PER), a broadly used method to study learning and memory in bees. Briefly, bees received a soft current of clean air for 15 seconds to allow bees to accommodate. Then a soft current of 1-hexanol (Sigma-Aldrich: 471402) was injected for 10 seconds. Six seconds after injection of 1-hexanol, one of the antennae was stimulated with sucrose water (50% w/w), which leads to the reflexive extension of the proboscis, and the bee was allowed to drink for 4 seconds. Thus, the reward and the stimulus overlapped for four seconds. This sequence, recognized as a training trial, was repeated eight times. Time was determined using a metronome (2 Hz). Memory retention was tested 24 hours after the eight training trials. […] 12 bees were trained each session. Training was conducted by an experimenter blind to treatment.
Learning was assessed from the total number of conditioned responses across the eight trials. Thus, each bee received a learning score between 0-7 (by definition, bees cannot show a learned response at the first trial). After 24 h, memory retention was assessed as the response to the presentation of 1-hexanol without a sucrose reward. Latency of response was quantified as the time between the onset of 1-hexanol stimulation and the onset of a response that led to a full extension of proboscis. Only bees being responsive to sucrose water across all training trials and the memory retention test were considered for analyses. Learning scores were compared across treatments using a Mann-Whitney test as data were not normally distributed (Shapiro-Wilk W test for the hypothesis that the data is from a Normal distribution: P<0.05 for all treatments). Comparisons of the learning score of bees across all treatments relative to Control bees were conducted using the Steel method adjusted as one or two-tailed tests. Additional post hoc comparisons were performed between Imid and Quer+Imid bees and between Imid and Rut+Imid bees. Memory retention was compared across groups using an overall Chi-Square test and independent tests for planned comparisons were performed using adjusted Wald tests for proportions. In all cases error due to multiple comparisons was controlled using the False Discovery Rate one stage method and adjusted p-values (q-values) are presented (Benjamini & Hochberg, Journal of the Royal Statistical Society. Series B (Methodological), 57(1):289-300. 1995; Pike, N., Methods in Ecology and Evolution, 2(3):278-282. 2011). All analyses were conducted using JMP v.14.0 (SAS Institute Inc). […]

[2] = test system: bumblebee Bombus impatiens; experiment: Olfactory conditioning of PER in bumblebees: self-administered rutin vs chronic fipronil; type: in vivo; settings: bumblebees; score 0-10; self-administered 1 μM rutin six days; 6 nM fipronil feeder for the last three days (chronic)
Experimental: One colony of the bumblebee Bombus impatiens (Koppert Inc) was kept in laboratory conditions. Bees received pollen inside the nests and foraged to a 1M sugar-water feeder outside of the nest. Bees were collected while on the feeder and iced anesthetized to then be randomly assigned to one of four plastic containers where self-administration of one of two solutions was allowed to 10 bees out of two feeders (glass vials with 500 μL of solution each): i) 1 M sucrose water or ii) 1 μM Rutin (Sigma-Aldrich R5143) diluted in 1M sucrose water. Feeders were refilled each day for three days. On the night of the third day, one of the vials was replaced by a new one with one of two solutions: i) 1 M sucrose water or ii) 1M sucrose water+6 nM fipronil. Feeders were refilled each day for three more days, thus providing a chronic exposure to fipronil. On the night of the […] day, bees were iced anesthetized and yolked restrained in plastic pipettes. Thus, bees belonged to one of four treatments:
Control: self-administered sucrose water for six days
Rut: self-administered rutin for six days
Fipro: self-administered sucrose water for three days followed by three days of self-administered sucrose water (one feeder) and fipronil (one feeder).
Rut+Fipro: self-administered rutin for three days followed by three days of self-administered rutin (one feeder) and fipronil (one feeder).
All bees were blind-trained using olfactory conditioning of the proboscis extension response (PER). Briefly, bees were exposed to a presentation of 1-nonanol (Sigma-Aldrich) for 10 s. After 7 s of the onset of the odor presentation, the antenna was stimulated with 1.5 M sugar-water to elicit the PER. Following the PER, the bee was allowed to drink sugar-water for 3 s. Each paired presentation was considered a training trial and each individual received eleven training trials with an average intertrial interval of 10 minutes. After training, all bees were fed 20 μL of 1M sugar water and maintained in plastic boxes for 24 h until the retention test. […] Twenty-four hours after the last training trial the bees were presented with the conditioned odor for 10 s.
Learning for each individual was quantified as the number of conditioned PER responses across the trials. Thus, for each bee a learning score between zero and ten (0-10) was recorded.
Multiple comparisons were then run comparing learning score relative to Control bees using a non-parametric one or two-tailed Steel Method depending upon predictions. These comparisons informed us about the predicted impairment produced by the fipronil, the predicted innocuous effect of the rutin and the potential level of protection. Error due to multiple comparisons was controlled using the False Discovery Rate method (FDR-two stage sharpened method). In all cases corrected p-values (q-values) are presented.
Memory retention was quantified as a nominal variable (yes/no). Data were compared across treatments using a Chi-square test, followed by multiple comparisons of all treatments vs. Control. Error due to multiple comparisons was controlled using the FDR as indicated above. In all cases corrected p-values (q values) are presented.
Latency was quantified as a continuous variable between 0.5 s and 10 s. […]

| Structure (SMILES) | odds of remembering for Control bees relative to Imid bees ([1]; 24 h retention) [times] | probability of exhibiting a conditioned PER after 24 h relative to Control bees ([1]; 24 h retention) | memory retention, proportion difference relative to Control bees (Adjusted Wald test) [1] | latency of response during learning acquisition relative to Control bees [1] | learning scores relative to Control bees [1] | bees exhibiting a conditioned PER after 24 h ([1]; retention test 24 h after training) [%] | learning score relative to Control bees [2] | learning scores relative to bees in the Imid group ([1]; honey bees prophylactically fed flavonoid for three days, then imidacloprid 1.5 h before training) |
| --- | --- | --- | --- | --- | --- | --- | --- | --- |
| O=[N+]([O-])NC1=NCCN1Cc1ccc(Cl)nc1 [Imidacloprid] | 9.1 | significantly lower | 0.49 | not significantly different from Control | significantly lower | 20 | – | – |
| C[C@@H]1O[C@@H](OC[C@H]2O[C@@H](Oc3c(-c4ccc(O)c(O)c4)oc4cc(O)cc(O)c4c3=O)[C@H](O)[C@@H](O)[C@@H]2O)[C@H](O)[C@H](O)[C@H]1O [Rutin] | – | – | −0.14 | not significantly different from Control | significantly higher learning scores | – | not significantly different | significantly higher learning scores |
